Key:
[1] = target: T1, MST1/STK4 (Homo sapiens, UniProt Q13043); assay: biochemical; settings: read-out: % enzyme activity, 1 μM; Run 1, Run 2
T1 sequence (Q13043 1-487): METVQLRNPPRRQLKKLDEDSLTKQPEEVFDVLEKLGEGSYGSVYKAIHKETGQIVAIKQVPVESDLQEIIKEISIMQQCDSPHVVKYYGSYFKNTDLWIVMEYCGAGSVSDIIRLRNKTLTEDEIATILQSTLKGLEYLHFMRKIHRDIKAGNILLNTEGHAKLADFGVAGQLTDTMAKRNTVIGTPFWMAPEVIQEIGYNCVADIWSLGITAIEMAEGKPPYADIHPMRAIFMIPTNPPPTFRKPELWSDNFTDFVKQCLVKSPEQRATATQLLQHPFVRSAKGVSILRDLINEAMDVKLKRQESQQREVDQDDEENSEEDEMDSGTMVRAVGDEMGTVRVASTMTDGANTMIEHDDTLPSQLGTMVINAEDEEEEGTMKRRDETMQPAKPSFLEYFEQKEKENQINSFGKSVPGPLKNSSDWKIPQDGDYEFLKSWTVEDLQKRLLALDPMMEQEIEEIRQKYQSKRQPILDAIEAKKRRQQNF

[2] = target: TTBK2 (Homo sapiens, UniProt Q6IQ55); settings: 1 μM; Run 1, Run 2
[3] = target: T2, GCK/MAP4K2 (Homo sapiens, UniProt Q12851); assay: biochemical; settings: read-out: % enzyme activity, 1 μM; Run 1, Run 2
T2 sequence (Q12851 1-820): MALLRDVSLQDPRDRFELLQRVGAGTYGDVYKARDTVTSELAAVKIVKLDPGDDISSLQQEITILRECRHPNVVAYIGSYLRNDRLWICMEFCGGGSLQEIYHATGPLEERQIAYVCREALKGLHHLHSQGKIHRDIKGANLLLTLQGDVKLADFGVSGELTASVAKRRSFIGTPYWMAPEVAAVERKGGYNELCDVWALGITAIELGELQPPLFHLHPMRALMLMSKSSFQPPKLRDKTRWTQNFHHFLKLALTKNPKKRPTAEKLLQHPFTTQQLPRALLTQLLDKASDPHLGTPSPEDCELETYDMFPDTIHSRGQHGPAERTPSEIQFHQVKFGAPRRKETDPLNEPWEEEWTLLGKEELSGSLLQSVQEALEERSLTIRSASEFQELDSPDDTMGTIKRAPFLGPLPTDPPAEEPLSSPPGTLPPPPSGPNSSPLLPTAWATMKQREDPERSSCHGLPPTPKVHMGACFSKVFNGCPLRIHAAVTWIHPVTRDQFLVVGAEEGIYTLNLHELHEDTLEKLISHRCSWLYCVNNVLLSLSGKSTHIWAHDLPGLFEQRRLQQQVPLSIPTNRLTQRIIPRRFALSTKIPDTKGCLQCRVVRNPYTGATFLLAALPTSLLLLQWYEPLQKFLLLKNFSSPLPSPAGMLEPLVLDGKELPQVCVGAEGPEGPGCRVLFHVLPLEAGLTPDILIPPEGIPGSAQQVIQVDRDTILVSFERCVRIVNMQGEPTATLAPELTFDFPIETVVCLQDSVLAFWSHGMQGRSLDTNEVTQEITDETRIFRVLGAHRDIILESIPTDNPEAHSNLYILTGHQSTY

[4] = target: DMPK2 (Homo sapiens, UniProt Q6DT37); assay: biochemical; settings: read-out: % enzyme activity, 1 μM; Run 1, Run 2
[5] = target: GRK5 (Homo sapiens, UniProt P34947); settings: 1 μM; Run 1, Run 2
[6] = target: T3, PKCmu/PRKD1 (Homo sapiens, UniProt Q15139); settings: 1 μM; Run 1, Run 2
T3 sequence (Q15139 1-912): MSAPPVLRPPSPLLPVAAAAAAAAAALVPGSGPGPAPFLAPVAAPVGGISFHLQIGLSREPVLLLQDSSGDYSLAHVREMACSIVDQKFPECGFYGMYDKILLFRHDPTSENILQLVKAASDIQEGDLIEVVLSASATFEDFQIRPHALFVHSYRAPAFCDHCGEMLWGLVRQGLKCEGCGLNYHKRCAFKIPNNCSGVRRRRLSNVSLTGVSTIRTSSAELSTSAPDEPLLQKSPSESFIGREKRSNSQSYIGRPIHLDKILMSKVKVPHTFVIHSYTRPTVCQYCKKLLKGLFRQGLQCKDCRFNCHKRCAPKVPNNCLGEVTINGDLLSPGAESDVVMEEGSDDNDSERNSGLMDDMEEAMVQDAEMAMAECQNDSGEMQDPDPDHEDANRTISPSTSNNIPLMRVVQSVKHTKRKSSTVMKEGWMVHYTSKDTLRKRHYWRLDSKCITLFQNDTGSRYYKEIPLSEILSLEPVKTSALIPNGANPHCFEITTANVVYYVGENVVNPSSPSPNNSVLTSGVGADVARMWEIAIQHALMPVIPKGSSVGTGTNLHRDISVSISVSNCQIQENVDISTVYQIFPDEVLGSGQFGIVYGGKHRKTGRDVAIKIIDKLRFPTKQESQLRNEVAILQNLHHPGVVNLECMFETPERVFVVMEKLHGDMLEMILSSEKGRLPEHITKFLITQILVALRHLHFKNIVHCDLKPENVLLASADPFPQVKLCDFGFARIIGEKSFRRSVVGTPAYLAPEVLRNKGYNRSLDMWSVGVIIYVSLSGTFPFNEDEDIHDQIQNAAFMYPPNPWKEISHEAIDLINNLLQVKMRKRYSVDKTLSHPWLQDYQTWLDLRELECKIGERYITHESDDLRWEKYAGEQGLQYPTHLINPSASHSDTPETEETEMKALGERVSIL

[7] = target: LOK/STK10 (Homo sapiens, UniProt O94804); assay: biochemical; settings: read-out: % enzyme activity, 1 μM; Run 1, Run 2
[8] = target: PAK3 (Homo sapiens, UniProt O75914); assay: biochemical; settings: read-out: % enzyme activity, 1 μM; Run 1, Run 2
Sequence of PAK3 (O75914 whole entry): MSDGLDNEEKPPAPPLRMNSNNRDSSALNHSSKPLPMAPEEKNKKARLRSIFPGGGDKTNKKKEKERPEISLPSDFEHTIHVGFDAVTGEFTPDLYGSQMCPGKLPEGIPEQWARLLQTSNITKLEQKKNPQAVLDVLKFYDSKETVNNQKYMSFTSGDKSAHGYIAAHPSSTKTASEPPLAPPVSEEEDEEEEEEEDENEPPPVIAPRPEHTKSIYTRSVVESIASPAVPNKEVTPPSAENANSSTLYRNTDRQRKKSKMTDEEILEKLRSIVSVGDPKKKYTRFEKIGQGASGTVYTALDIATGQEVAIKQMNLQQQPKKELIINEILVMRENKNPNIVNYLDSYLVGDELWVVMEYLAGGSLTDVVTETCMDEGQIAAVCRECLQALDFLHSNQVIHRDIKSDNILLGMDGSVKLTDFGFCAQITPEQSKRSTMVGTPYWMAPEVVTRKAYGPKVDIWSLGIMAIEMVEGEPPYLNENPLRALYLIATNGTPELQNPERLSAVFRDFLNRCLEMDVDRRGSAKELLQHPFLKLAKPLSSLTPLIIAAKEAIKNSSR

Sequence of DMPK2 (Q6DT37 whole entry): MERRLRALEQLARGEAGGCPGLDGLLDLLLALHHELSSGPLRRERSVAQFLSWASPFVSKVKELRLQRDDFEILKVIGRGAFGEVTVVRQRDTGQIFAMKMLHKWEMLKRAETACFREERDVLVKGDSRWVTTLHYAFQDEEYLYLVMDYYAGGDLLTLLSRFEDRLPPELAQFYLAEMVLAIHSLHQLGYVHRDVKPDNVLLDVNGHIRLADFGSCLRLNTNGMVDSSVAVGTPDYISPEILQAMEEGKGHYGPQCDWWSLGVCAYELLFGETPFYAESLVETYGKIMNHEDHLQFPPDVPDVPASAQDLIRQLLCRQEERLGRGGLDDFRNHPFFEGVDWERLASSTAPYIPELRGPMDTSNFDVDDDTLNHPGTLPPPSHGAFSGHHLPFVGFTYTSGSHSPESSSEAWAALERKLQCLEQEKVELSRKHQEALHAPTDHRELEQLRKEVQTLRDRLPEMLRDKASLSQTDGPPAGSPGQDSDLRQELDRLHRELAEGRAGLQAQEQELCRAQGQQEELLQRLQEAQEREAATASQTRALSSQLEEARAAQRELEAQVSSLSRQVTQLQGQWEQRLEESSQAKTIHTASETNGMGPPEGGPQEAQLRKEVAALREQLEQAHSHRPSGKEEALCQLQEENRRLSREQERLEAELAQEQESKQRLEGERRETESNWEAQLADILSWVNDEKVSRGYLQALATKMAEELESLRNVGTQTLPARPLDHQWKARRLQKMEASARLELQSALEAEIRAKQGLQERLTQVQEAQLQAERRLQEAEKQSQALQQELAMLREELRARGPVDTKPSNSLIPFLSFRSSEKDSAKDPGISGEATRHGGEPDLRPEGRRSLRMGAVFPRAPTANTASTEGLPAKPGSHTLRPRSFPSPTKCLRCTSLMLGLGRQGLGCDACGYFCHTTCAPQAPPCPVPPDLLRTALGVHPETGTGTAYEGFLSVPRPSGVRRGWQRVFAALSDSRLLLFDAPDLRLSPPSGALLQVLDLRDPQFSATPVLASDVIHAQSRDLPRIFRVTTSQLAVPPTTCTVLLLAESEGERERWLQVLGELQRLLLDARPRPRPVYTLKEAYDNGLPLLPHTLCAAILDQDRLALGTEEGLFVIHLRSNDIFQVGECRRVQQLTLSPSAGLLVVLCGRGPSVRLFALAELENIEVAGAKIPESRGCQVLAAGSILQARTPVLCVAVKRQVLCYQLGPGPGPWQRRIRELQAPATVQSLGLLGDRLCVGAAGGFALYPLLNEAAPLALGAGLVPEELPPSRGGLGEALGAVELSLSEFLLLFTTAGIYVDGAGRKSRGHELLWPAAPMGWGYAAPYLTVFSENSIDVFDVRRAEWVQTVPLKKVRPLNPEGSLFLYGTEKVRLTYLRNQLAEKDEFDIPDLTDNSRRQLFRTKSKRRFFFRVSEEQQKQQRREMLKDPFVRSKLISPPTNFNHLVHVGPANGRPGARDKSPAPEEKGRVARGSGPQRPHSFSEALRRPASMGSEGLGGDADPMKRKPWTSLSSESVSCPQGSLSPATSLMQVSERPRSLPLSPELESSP
Sequence of TTBK2 (Q6IQ55 whole entry): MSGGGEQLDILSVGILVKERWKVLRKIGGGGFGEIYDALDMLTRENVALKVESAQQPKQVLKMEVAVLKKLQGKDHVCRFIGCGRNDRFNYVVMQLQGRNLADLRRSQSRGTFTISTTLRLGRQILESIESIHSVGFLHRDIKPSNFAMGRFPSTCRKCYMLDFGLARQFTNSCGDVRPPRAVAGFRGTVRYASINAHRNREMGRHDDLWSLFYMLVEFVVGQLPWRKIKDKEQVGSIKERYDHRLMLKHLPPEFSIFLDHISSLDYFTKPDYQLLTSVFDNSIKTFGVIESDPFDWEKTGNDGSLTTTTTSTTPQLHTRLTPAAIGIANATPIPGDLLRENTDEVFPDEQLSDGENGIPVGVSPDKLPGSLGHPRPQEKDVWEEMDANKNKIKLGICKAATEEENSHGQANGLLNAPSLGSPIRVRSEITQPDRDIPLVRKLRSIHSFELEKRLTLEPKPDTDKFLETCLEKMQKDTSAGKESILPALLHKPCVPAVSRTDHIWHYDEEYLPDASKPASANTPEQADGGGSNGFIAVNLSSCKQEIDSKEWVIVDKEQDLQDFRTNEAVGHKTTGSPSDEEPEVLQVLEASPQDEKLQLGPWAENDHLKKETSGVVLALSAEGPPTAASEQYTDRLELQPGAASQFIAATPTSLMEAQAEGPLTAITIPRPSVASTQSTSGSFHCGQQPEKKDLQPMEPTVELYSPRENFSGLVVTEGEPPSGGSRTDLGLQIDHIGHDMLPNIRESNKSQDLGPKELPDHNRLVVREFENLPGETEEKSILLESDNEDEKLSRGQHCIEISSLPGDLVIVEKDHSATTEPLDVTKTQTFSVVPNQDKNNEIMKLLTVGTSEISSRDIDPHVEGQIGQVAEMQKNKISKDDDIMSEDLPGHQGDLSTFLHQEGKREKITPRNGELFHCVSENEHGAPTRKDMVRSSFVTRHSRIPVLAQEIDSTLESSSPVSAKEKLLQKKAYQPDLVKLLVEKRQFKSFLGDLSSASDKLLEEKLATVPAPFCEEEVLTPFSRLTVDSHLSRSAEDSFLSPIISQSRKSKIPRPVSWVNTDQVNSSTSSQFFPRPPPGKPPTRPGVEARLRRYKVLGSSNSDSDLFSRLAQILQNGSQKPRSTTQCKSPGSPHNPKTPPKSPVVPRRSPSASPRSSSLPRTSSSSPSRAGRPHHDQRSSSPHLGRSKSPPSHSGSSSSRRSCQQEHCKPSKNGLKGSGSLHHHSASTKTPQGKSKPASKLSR
Sequence of GRK5 (P34947 whole entry): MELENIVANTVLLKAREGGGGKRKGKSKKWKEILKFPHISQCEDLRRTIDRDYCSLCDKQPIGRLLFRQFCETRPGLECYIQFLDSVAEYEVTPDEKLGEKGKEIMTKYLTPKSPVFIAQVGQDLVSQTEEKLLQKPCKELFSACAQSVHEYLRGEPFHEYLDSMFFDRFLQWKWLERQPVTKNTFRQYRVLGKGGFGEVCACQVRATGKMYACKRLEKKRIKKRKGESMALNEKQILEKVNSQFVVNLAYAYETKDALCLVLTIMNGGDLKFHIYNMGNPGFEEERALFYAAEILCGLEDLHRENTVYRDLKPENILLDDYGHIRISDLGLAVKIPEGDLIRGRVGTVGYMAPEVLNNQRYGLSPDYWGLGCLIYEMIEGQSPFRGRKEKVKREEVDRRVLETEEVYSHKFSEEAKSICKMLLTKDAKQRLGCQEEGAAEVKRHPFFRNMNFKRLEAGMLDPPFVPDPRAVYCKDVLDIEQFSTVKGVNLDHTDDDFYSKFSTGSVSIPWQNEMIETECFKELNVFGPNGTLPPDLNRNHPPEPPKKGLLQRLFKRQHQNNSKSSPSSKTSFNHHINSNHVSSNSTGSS
Sequence of LOK/STK10 (O94804 whole entry): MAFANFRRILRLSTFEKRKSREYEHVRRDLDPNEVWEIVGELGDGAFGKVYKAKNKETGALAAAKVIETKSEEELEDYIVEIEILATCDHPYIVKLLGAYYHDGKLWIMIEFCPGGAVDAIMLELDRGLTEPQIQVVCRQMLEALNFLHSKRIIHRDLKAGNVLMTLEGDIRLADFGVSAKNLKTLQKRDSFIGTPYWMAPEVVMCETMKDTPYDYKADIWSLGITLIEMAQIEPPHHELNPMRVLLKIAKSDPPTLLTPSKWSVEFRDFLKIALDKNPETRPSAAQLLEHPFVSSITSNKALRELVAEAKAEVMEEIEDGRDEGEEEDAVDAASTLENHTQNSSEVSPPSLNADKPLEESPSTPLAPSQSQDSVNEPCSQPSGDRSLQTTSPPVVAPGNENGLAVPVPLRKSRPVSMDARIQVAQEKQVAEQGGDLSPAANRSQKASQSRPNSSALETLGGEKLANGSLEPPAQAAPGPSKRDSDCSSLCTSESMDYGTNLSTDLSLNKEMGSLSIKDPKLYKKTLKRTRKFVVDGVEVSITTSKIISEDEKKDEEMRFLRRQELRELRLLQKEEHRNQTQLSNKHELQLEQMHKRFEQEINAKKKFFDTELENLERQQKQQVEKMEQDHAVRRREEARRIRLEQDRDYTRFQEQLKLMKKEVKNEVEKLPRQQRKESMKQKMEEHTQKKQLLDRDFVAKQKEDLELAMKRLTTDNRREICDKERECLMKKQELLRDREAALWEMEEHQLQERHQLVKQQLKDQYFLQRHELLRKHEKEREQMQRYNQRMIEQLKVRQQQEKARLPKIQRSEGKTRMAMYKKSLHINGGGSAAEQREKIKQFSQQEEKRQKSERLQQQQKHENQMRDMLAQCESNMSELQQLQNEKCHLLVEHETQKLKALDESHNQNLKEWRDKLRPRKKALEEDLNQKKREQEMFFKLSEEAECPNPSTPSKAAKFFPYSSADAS

SMILES	remaining activity at 1 µM [1] [%]	% enzyme activity [2] [%]	remaining activity at 1 µM [3] [%]	remaining activity at 1 µM [4] [%]	% enzyme activity [5] [%]	% enzyme activity [6] [%]	remaining activity at 1 µM [7] [%]	remaining activity at 1 µM [8] [%]
COc1cc(-c2cncc(-c3ccc(N4CCN(C)CC4)cc3)c2C)cc(F)c1C(N)=O [Compound 26a, 2-Fluoro-6-methoxy-4-(4-methyl-5-(4-(4-methylpiperazin-1-yl)phenyl)pyridin-3-yl)benzamide]	101	94.62	61.8	83.8	99.06	88.26	51.8	89.5
COc1cc(-c2cncc(-c3ccc(N4C[C@@H](C)N(C)[C@@H](C)C4)cc3)c2C)cc(F)c1C(N)=O [Compound 26c, 2-Fluoro-6-methoxy-4-(4-methyl-5-(4-((3R,5S)-3,4,5-trimethylpiperazin-1-yl)phenyl)pyridin-3-yl)benzamide]	103	96.48	75.4	87.5	91.62	95.09	68.7	125
